Source: patent US20230407243A1, “GENETIC PLATFORM TO INVESTIGATE THE FUNCTIONS OF BACTERIAL DRUG EFFLUX PUMPS” (priority 2022, published 2023)

What was measured:
Type in all cases: cell-based, Escherichia coli
[1] = system: EKO-35 araC::emrKY Pore; test: MIC susceptibility profiling, porinated efflux platform
Procedure: (§1) For genomic integration of the pore, the fhuA ΔC/Δ4L gene and the adjacent gentamicin resistance cassette were amplified using a high-fidelity polymerase and the fhuA_40_Up/gImS_3680_Low primers (Table 4). Integration of the pore gene was performed as described above. The pore gene was introduced into the intergenic region between the glmS and pstS genes, with gene expression under the control of a constitutive promoter (Kearse, M. et al., 2012). Genomic integrations were verified using PCR (Primers: pstS_520_Up/glmS_3680_Low, Table 4). Successful integrations were transformed with pCP20 to remove the gentamicin resistance cassette as previously described. Activity of the pore was confirmed through susceptibility testing with the large antibiotic vancomycin prior to phenotypic profiling and further susceptibility testing.
(§2) Single colonies were used to inoculate 3 mL of LB followed by incubation at 37° C. for 18 h with aeration at 220 rpm. The bacterial cells were harvested by centrifugation and resuspended in phosphate buffered saline (PBS) ([pH 7.4], 137 mM NaCl (Bioshop), 2.7 mM KCl (Bioshop), 10 mM Na2PO4 (Bioshop) and 1.8 mM K2PO4) to an OD600 nm˜1.0, followed by 1/2000 dilution into MHB II.
(§3) To a 384-well microtiter plate (Corning, untreated polystyrene), 500 nL of compound was dispensed, in duplicate, and serially titrated 2-fold using an Echo 550 acoustic liquid dispenser (Labcyte Inc.). […] As a solvent control, 500 nL of DMSO was applied to wells that contained no compound. Using a multichannel pipette, 50 μL of the prepared bacterial inoculum was applied to each well. To enable background correction post-incubation, the OD600 nm was measured (Biotek Synergy Neo2 microplate reader) prior to incubation. The plates were incubated at 37° C. with aeration at 900 rpm for 18 h. The plates were equilibrated to room temperature and the OD600 nm measured using a BioTek Synergy Neo2 microplate reader. Data was analyzed in both Prism (GraphPad, Version 9.2.0) and Microsoft Excel (Version 16.53). Raw data were input into Microsoft Excel and the pre-incubation OD600 nm measurements were subtracted from the post-incubation OD600 nm measurements. These corrected measurements were input into Prism 9 as a grouped analysis. […] All other MIC values were adjusted accordingly and visualized using the single-color scale grouped heat map function. Identification of compound chemical properties was achieved using DataWarrior (Version 5.5.0). Using PubChem, the SMILES chemical notation for each compound was obtained and compiled in Microsoft Excel. The resulting spreadsheet was input into DataWarrior and properties were calculated from the compound chemical structures.

[2] = system: EKO-35 araC::acrEF Pore; test: as above
Procedure: as §1, §2, §3

[3] = system: EKO-35 araC::macAB Pore; test: as above
Procedure: as §1, §2, §3

[4] = system: EKO-35 araC::mdtEF Pore; test: as above
Procedure: as §1, §2, §3

[5] = system: EKO-35 araC::emrKY; test: MIC susceptibility profiling, efflux platform
Procedure: as §2, §3

[6] = system: EKO-35 araC::acrB; test: MIC susceptibility profiling, efflux platform; details: Table 13A; non-porinated; technical duplicate
Procedure: as §2, §3

[7] = system: EKO-35 araC::acrBD408A; test: MIC susceptibility profiling, efflux platform
Procedure: as §2, §3

[8] = system: EKO-35 araC::mdtEF; test: MIC susceptibility profiling, efflux platform
Procedure: as §2, §3

[9] = system: EKO-35 araC::mdtBC; test: MIC susceptibility profiling, efflux platform
Procedure: as §2, §3

[10] = system: EKO-35 araC::acrD; test: MIC susceptibility profiling, efflux platform
Procedure: as §2, §3

[11] = system: EKO-35 araC::emrAB; test: MIC susceptibility profiling, efflux platform
Procedure: as §2, §3

[12] = system: EKO-35 araC::acrEF; test: MIC susceptibility profiling, efflux platform
Procedure: as §2, §3

[13] = system: EKO-35 araC::mexCD (MexCD from P. aeruginosa); test: MIC susceptibility profiling, efflux platform
Procedure: as §2, §3

[14] = system: EKO-35 araC::macAB; test: MIC susceptibility profiling, efflux platform
Procedure: as §2, §3

[15] = system: ΔtolC-Pore; test: microbe, parasite or virus in culture; details: technical duplicate
Procedure: as §1, §2, §3

[16] = system: wild-type (WT) K-12-Pore; test: microbe, parasite or virus in culture; details: technical duplicate
Procedure: as §1, §2, §3

[17] = system: wild-type E. coli K-12 str. BW25113; test: microbe, parasite or virus in culture; details: technical duplicate
Procedure: as §2, §3

[18] = system: E. coli ΔtolC; test: microbe, parasite or virus in culture; details: technical duplicate
Procedure: as §2, §3

[19] = system: E. coli EKO-35; test: microbe, parasite or virus in culture
Procedure: as §2, §3

[20] = Table 14A, porinated, technical duplicate
[21] = Table 13B, non-porinated, technical duplicate
[22] = Table 13A, non-porinated, technical duplicate

N#CC(C#N)=NNc1ccc(-n2ccc(C(F)(F)F)n2)cc1 [compound 8]
Fold changes of MICs ([1]; EKO-35 araC::emrKY Pore compared to EKO-35-Pore): 1 fold
Minimum inhibitory concentration ([1]; EKO-35 araC::emrKY Pore, technical duplicate): 80 µg/mL
Fold changes of MICs ([2]; EKO-35 araC::acrEF Pore compared to EKO-35-Pore): 1 fold
Minimum inhibitory concentration, EKO-35 araC::acrEF Pore [2, 20]: 40 µg/mL
Fold changes of MICs ([3]; EKO-35 araC::macAB Pore compared to EKO-35-Pore): 1 fold
Minimum inhibitory concentration ([3]; EKO-35 araC::macAB Pore, technical duplicate): 80 µg/mL
Fold changes of MICs ([4]; EKO-35 araC::mdtEF Pore compared to EKO-35-Pore): 1 fold
Minimum inhibitory concentration, EKO-35 araC::mdtEF Pore [4, 20]: 80 µg/mL
Fold change of MICs ([5]; EKO-35 araC::emrKY compared to EKO-35): 1 fold
Minimum Inhibitory Concentration, EKO-35 araC::emrKY [5, 21]: 320 µg/mL
Minimum Inhibitory Concentration, EKO-35 araC::acrB [6]: 640 µg/mL
Fold change of MICs ([7]; EKO-35 araC::acrBD408A compared to EKO-35): 1 fold
Minimum Inhibitory Concentration, EKO-35 araC::acrBD408A [7, 21]: 320 µg/mL
Fold change of MICs ([8]; EKO-35 araC::mdtEF compared to EKO-35): 1 fold
Minimum Inhibitory Concentration, EKO-35 araC::mdtEF [8, 22]: 320 µg/mL
Fold change of MICs ([9]; EKO-35 araC::mdtBC compared to EKO-35): 1 fold
Minimum Inhibitory Concentration, EKO-35 araC::mdtBC [9, 21]: 320 µg/mL
Fold change of MICs ([10]; EKO-35 araC::acrD compared to EKO-35): 1 fold
Minimum Inhibitory Concentration, EKO-35 araC::acrD [10, 22]: 160 µg/mL
Fold change of MICs ([11]; EKO-35 araC::emrAB compared to EKO-35): 1 fold
Minimum Inhibitory Concentration, EKO-35 araC::emrAB [11, 21]: 320 µg/mL
Fold change of MICs ([12]; EKO-35 araC::acrEF compared to EKO-35): 1 fold
Minimum Inhibitory Concentration, EKO-35 araC::acrEF [12, 22]: 320 µg/mL
Fold change of MICs ([13]; EKO-35 araC::mexCD compared to EKO-35): 1 fold
Minimum Inhibitory Concentration, EKO-35 araC::mexCD [13, 21]: 320 µg/mL
Fold change of MICs ([14]; EKO-35 araC::macAB compared to EKO-35): 1 fold
Minimum Inhibitory Concentration, EKO-35 araC::macAB [14, 21]: 320 µg/mL
Minimum inhibitory concentration (MIC), Pore ΔtolC ([15]; Table 10, with pore): 1.25 µg/mL
Minimum inhibitory concentration, ΔtolC-Pore ([15]; Table 14A, porinated): 1.25 µg/mL
Minimum inhibitory concentration (MIC), Pore K-12 ([16]; Table 10, with pore): 160 µg/mL
Minimum inhibitory concentration, K-12 (WT)-Pore ([16]; Table 14A, porinated): 160 µg/mL
Minimum inhibitory concentration (MIC), K-12 ([17]; Table 10, without pore): 640 µg/mL
Minimum Inhibitory Concentration, K-12 ([17]; Table 13A, non-porinated): 640 µg/mL
Minimum inhibitory concentration (MIC), ΔtolC ([18]; Table 10, without pore): 1.25 µg/mL
Minimum Inhibitory Concentration, ΔtolC ([18]; Table 13A, non-porinated): 1.25 µg/mL
Fold change of MICs ([19]; EKO-35 compared to EKO-35 (reference)): 1 fold
Minimum inhibitory concentration (MIC), EKO-35 ([19]; Table 10, without pore, technical duplicate): 320 µg/mL
Minimum Inhibitory Concentration, EKO-35 [19, 22]: 320 µg/mL
